From the NIST ThermoML archive (doi:10.1016/j.jct.2017.09.005)
Numbers after ± are expanded uncertainties.

Legend:
[1] = molar heat capacity at saturation pressure; settings: Liquid, Small sample (50 mg) DSC
[2] = for molar entropy: 101.33 kPa, Small sample (50 mg) DSC; for Critical density: DSC; for Critical temperature: DTA
[3] = 323.14 K, Liquid, Vibrating tube method
[4] = 348.13 K, Liquid, Vibrating tube method
[5] = 373.12 K, Liquid, Vibrating tube method
[6] = 398.12 K, Liquid, Vibrating tube method
[7] = 423.11 K, Liquid, Vibrating tube method
[8] = 448.11 K, Liquid, Vibrating tube method

Cn1cccc1 [N-methylpyrrole]
molar heat capacity ([1]; 360 K): 164.66 ± 2.9 J/K/mol
molar heat capacity ([1]; 380 K): 170.08 ± 2.9 J/K/mol
molar heat capacity ([1]; 400 K): 175.89 ± 3 J/K/mol
molar heat capacity ([1]; 420 K): 182.02 ± 3.2 J/K/mol
molar heat capacity ([1]; 440 K): 188.36 ± 3.3 J/K/mol
molar heat capacity ([1]; 460 K): 194.81 ± 3.4 J/K/mol
molar heat capacity ([1]; 480 K): 201.34 ± 3.5 J/K/mol
molar heat capacity ([1]; 500 K): 208.14 ± 3.6 J/K/mol
molar heat capacity ([1]; 520 K): 215.72 ± 3.7 J/K/mol
mass density [2, 3]: 879.5 ± 1.8 kg/m3
mass density [2, 4]: 854.2 ± 1.7 kg/m3
molar entropy ([2]; 360 K, Liquid): 230.1 ± 5.3 J/K/mol
mass density [2, 5]: 828.2 ± 1.7 kg/m3
molar entropy ([2]; 380 K, Liquid): 239.15 ± 5.6 J/K/mol
mass density [2, 6]: 800.7 ± 1.6 kg/m3
molar entropy ([2]; 400 K, Liquid): 248.02 ± 5.8 J/K/mol
molar entropy ([2]; 420 K, Liquid): 256.74 ± 6 J/K/mol
mass density [2, 7]: 772.1 ± 1.5 kg/m3
molar entropy ([2]; 440 K, Liquid): 265.36 ± 6.2 J/K/mol
mass density [2, 8]: 741.1 ± 1.5 kg/m3
molar entropy ([2]; 460 K, Liquid): 273.88 ± 6.4 J/K/mol
molar entropy ([2]; 480 K, Liquid): 282.3 ± 6.6 J/K/mol
molar entropy ([2]; 500 K, Liquid): 290.66 ± 6.8 J/K/mol
molar entropy ([2]; 520 K, Liquid): 298.96 ± 7 J/K/mol
mass density ([2]; 582.9 K, Gas, From heat capacities measured by DSC): 137 ± 14 kg/m3
mass density ([2]; 592 K, Gas, From heat capacities measured by DSC): 201 ± 20 kg/m3
mass density ([2]; 592.7 K, Gas, From heat capacities measured by DSC): 220 ± 22 kg/m3
mass density ([2]; 593.2 K, Liquid, From heat capacities measured by DSC): 382 ± 38 kg/m3
mass density ([2]; 596.1 K, Gas, From heat capacities measured by DSC): 257 ± 26 kg/m3
mass density ([2]; 596.2 K, Liquid, From heat capacities measured by DSC): 328 ± 33 kg/m3
mass density ([2]; 596.5 K, Liquid, From heat capacities measured by DSC): 337 ± 34 kg/m3
Critical density ([2]; Liquid): 299.8 ± 30 kg/m3
Critical temperature ([2]; Liquid): 597 ± 2 K

c1cc[nH]c1 [pyrrole]
molar heat capacity ([1]; 360 K): 143.21 ± 2.5 J/K/mol
molar heat capacity ([1]; 380 K): 148.11 ± 2.6 J/K/mol
molar heat capacity ([1]; 400 K): 152.99 ± 2.7 J/K/mol
molar heat capacity ([1]; 420 K): 157.84 ± 2.7 J/K/mol
molar heat capacity ([1]; 440 K): 162.62 ± 2.8 J/K/mol
molar heat capacity ([1]; 460 K): 167.28 ± 2.9 J/K/mol
molar heat capacity ([1]; 480 K): 171.79 ± 3 J/K/mol
molar heat capacity ([1]; 500 K): 176.14 ± 3.1 J/K/mol
molar heat capacity ([1]; 520 K): 180.48 ± 3.1 J/K/mol
molar heat capacity ([1]; 540 K): 185.06 ± 3.2 J/K/mol
mass density [2, 3]: 943.9 ± 1.9 kg/m3
mass density [2, 4]: 921.2 ± 1.8 kg/m3
molar entropy ([2]; 360 K, Liquid): 181.95 ± 4.2 J/K/mol
mass density [2, 5]: 897.8 ± 1.8 kg/m3
molar entropy ([2]; 380 K, Liquid): 189.82 ± 4.4 J/K/mol
mass density [2, 6]: 873.5 ± 1.7 kg/m3
molar entropy ([2]; 400 K, Liquid): 197.54 ± 4.6 J/K/mol
molar entropy ([2]; 420 K, Liquid): 205.12 ± 4.8 J/K/mol
mass density [2, 7]: 847.6 ± 1.7 kg/m3
molar entropy ([2]; 440 K, Liquid): 212.58 ± 4.9 J/K/mol
mass density [2, 8]: 820.2 ± 1.6 kg/m3
molar entropy ([2]; 460 K, Liquid): 219.91 ± 5.1 J/K/mol
mass density ([2]; 468.11 K, Liquid, Vibrating tube method): 796.1 ± 1.6 kg/m3
molar entropy ([2]; 480 K, Liquid): 227.13 ± 5.3 J/K/mol
molar entropy ([2]; 500 K, Liquid): 234.23 ± 5.4 J/K/mol
molar entropy ([2]; 520 K, Liquid): 241.22 ± 5.6 J/K/mol
molar entropy ([2]; 540 K, Liquid): 248.11 ± 5.8 J/K/mol
mass density ([2]; 604.6 K, Gas, From heat capacities measured by DSC): 104 ± 11 kg/m3
mass density ([2]; 623.7 K, Gas, From heat capacities measured by DSC): 148 ± 17 kg/m3
mass density ([2]; 632.4 K, Gas, From heat capacities measured by DSC): 220 ± 28 kg/m3
mass density ([2]; 633.5 K, Liquid, From heat capacities measured by DSC): 395 ± 40 kg/m3
mass density ([2]; 635.4 K, Liquid, From heat capacities measured by DSC): 329 ± 33 kg/m3
mass density ([2]; 637.8 K, Gas, From heat capacities measured by DSC): 271 ± 33 kg/m3
Critical density ([2]; Liquid): 314.2 ± 31 kg/m3
Critical temperature ([2]; Liquid): 638.5 ± 2 K
